* marks the point of attachment. Mercaptoacetyl = O=C(CS)*; Bz = O=C(c1ccccc1)*

Type in all cases: physicochemical
The nature of series [1]: Cysteine challenge stability of ^99mTc chelator peptides. On the procedure:
(§1) For the ^99mTc radiolabeling, a peptide as the TFA salt was dissolved in saline at 1 mg/mL and 100 μg (100 μL) was added to a ^99mTc placebo vial. The vial was reconstituted with 0.9 mL technetium ^99mTc sodium pertechnetate containing approximately 20 mCi and saline such that the final preparation volume was 1.1 mL. The vial was heated in a boiling water bath for 10 minutes and cooled at room temperature for 10 minutes.
(§2) The radiochemical purity (RCP) of the ^99mTc or ^188Re peptides was measured by gradient reversed phase HPLC using a Eurosphere-100 C18 HPLC column and 0.1% TFA mobile phases moderated with acetonitrile. Radioactive components were detected in the HPLC system using an in-line radiometric detector. Under the gradient conditions employed radiolabeled impurities (for example: ^99mTc glucoheptonate, ^99mTc edetate, and ^99mTc pertechnetate) eluted early (between 1 and 4 minutes), while the radiolabeled peptides eluted much later (between 8 and 20 minutes). In general, two isomeric radiometal complexes were observed, and the HPLC RCP was measured as the sum of the percent areas of the peaks corresponding to the two complexes. Radiochemical purity results for each of compounds are summarized in the examples that follow.
(§3) To ^99mTc radiolabelled peptide preparations described in Example 3 was added 150 μg of cysteine (approximately a 7-fold molar excess over peptide), and the preparations were stored at room temperature and monitored by HPLC for up to 12 hours. The amount of ^99mTc cysteine formed over time was noted. The initial HPLC analysis was started within 5 minutes of adding cysteine. In all cysteine challenge studies, a chelator compound containing a stabilizing sidechain was screened vs. the corresponding control chelator compound containing no sidechain. The relative amount of ^99mTc cysteine formed over time correlates inversely with the stability of the chelator (ie. less ^99mTc cysteine indicates higher chelator stability).
Several model chelator peptides were prepared with an N^1—N^2-Cys (N^1, N^2=independently any amino acid) amino acid sequence capable of complexing technetium as a triamide thiol chelator. Various stabilizing sidechains were substituted into the N^1—N^2-Cys chelator in two positions R1 and R2 as depicted in FIG. 4. The compounds were screened in the cysteine challenge experiment described in Example 4. Several experiments were conducted where 1-2 chelators were compared directly to a control chelator containing no stabilizing sidechain (compound GoC1 was also analyzed alone in a further study). Results in Table 5 represent % Peptide complexed to ^99mTc (ie. 100%−the amount of ^99mTc cysteine) vs. time.
Several model chelator peptides were prepared with an (β)Dap-N^2-Cys (N^2=any amino acid) amino acid sequence capable of complexing technetium as an amine diamide thiol chelator. This chelator is the chelator in the somatostatin peptides that were evaluated in Examples 5 and 6. Various stabilizing sidechains were substituted into the (β)Dap-N^2-Cys chelator in two positions R3 and R4 as depicted in FIG. 5. The compounds were screened in the cysteine challenge experiment described in Example 4. Several experiments were conducted where 1-2 chelators were compared directly to a control chelator containing no stabilizing sidechain. Results in Table 6 are the same as described in Example 7.
Two model chelator peptides were prepared with a ma-N^1—N^2 (Ma=mercaptoacetyl; N^1, N^2=independently any amino acid) amino acid sequence capable of complexing technetium as a triamide thiol chelator. This chelator has the thiol donor group at the N-terminus of the peptide. A stabilizing sidechain was substituted into the ma-N^1—N^2 chelator in position R5 as depicted in FIG. 6. The compounds were radiolabeled according to Example 3 with the exception that additional NaOH was added to bring the pH of the preparation up to pH 8.5. […]

Series [2] in a line: Cysteine challenge stability of ^188Re chelator peptides. As to conditions: radiolabeled with ^188Re. On the procedure:
For the ^188Re radiolabeling, a peptide as the TFA salt was dissolved in saline at 1 mg/mL and 100 μg (100 μL) was added to a ^188Re placebo vial. To the vial was added 100 μg stannous chloride dihydrate. The vial was reconstituted with 0.9 mL rhenium ^188Re sodium perrhenate containing approximately 20 mCi and saline such that the final preparation volume was 1.5 mL. The vial was heated in a boiling water bath for 15 minutes and cooled at room temperature for 10 minutes. Finally 1 mL of an antioxidant stabilizer solution containing 10 mg gentisic acid sodium salt monohydrate and 20 mg ascorbic acid was added to the vial.
as §2, §3
Some of the N^1—N^2-Cys (N^1, N^2=independently any amino acid) model chelator peptides described in Example 7 were radiolabeled with ^188Re and screened in the cysteine challenge experiment described in Example 4. Two chelators (See FIG. 4) were compared directly to the control chelator containing no stabilizing sidechain. In these studies, the products were monitored for 6 hours. Results in Table 8 represent % Peptide complexed to ^188Re (ie. 100%−the amount of ^188Re cysteine) vs. time.

The nature of series [3]: HPLC radiochemical purity (RCP) stability of ^99mTc radiolabeled somatostatin peptides. Here is the method:
Lyophilized kit “placebo” vials were prepared containing 5 mg sodium glucoheptonate dihydrate, 100 μg edetate disodium dihydrate, and either 50 μg (^99mTc placebo) or 1000 μg (^188Re placebo) stannous chloride dihydrate. The formulations were adjusted to pH 7.4 prior to lyophilization.
as §1, §2
Somatostatin peptides were prepared with varying sidechains in the chelator portion of the compounds as described in FIG. 2. The sidechains varied in length from 0 to 5 atoms. These peptides have an amine-diamide-thiol chelator of the (β)Dap-N^2-Cys type (N^2=any amino acid). Each of the peptides were radiolabeled and monitored for HPLC stability out to 9 hours according the procedures described in Example 3.
Analogs to a commercial lung cancer imaging radiopharmaceutical (NeoTect®) were prepared to investigate the influence of the stabilizing sidechain (D)-CH2CH2CH2NH2 as described in FIG. 3. These peptides have an amine-diamide-thiol chelator of the (β)Dap-N^2-Cys type (N^2=any amino acid). The compound with N^2=Lys (sidechain=(L)-CH2CH2—CH2CH2NH2) is the peptide in the commercial radiopharmaceutical product. Each of the peptides were radiolabeled and monitored for HPLC stability out to 18 hours according to the procedures described in Example 3.

Setting [4] is: N1-N2-Cys triamide thiol chelators, cysteine challenge.
Setting [5] is: Ma-N1-N2 triamide thiol chelators, preparation pH 8.5, cysteine challenge.
Where [6] appears, read: Ma-N1-N2 triamide thiol chelators, preparation pH 8.5, cysteine challenge, Initial.
The mark [7] stands for this setting: ^99mTc labeled somatostatin peptide, (β)Dap-N2-Cys chelator, sum of percent areas of the two complex peaks.
The mark [8] stands for this setting: ^99mTc labeled somatostatin peptide, (β)Dap-N2-Cys chelator.

For “Bz-Gly-Gly-Glu-Cys-Ala.amide (Bz-GGECA-NH2; SMILES C[C@H](NC(=O)[C@H](CS)NC(=O)[C@H](CCC(=O)O)NC(=O)CNC(=O)CNC(=O)c1ccccc1)C(N)=O)”, in series [1] (N1-N2-Cys triamide thiol chelators, 150 μg cysteine, room temperature, Initial (within 5 minutes)), the “% Peptide Complexed to ^99mTc Initial” value was found to be 100%. For the same substance, in series [1] (setting [4]), the “% Peptide Complexed to ^99mTc 2 h” value is 88.9%, the “% Peptide Complexed to ^99mTc 4 h” value was 84.5%, the “% Peptide Complexed to ^99mTc 6 h” value amounted to 80.3% and the “% Peptide Complexed to ^99mTc 8 h” value amounted to 75.7%. In series [1] (setting [4]), the “% Peptide Complexed to ^99mTc 10 h” value was determined as 74.1% and the “% Peptide Complexed to ^99mTc 12 h” value is on record as 69.0%. The “% Peptide Complexed to ^188Re” value in series [2] (1.5 h) is 94.0%. For the same substance, the “% Peptide Complexed to ^188Re” value in series [2] (3 h) was 90.5%. Moreover, in series [2] (4.5 h), the “% Peptide Complexed to ^188Re” value came out at 89.7%. For the same substance, in series [2] (6 h), the “% Peptide Complexed to ^188Re” value was 90.2%. Moreover, in series [2] (N1-N2-Cys chelators, Initial), the “% Peptide Complexed to ^188Re” value was determined as 98.0%.

Consider Ma-(D)Orn-Gly-Tyr-Ala.amide [Ma.oC], for which, in series [1] (setting [5]), the “% Peptide Complexed to ^99mTc 2 h” value stood at 87.4%, the “% Peptide Complexed to ^99mTc 4 h” value is given as 87.2%, the “% Peptide Complexed to ^99mTc 6 h” value was found to be 84.9% and the “% Peptide Complexed to ^99mTc 8 h” value was found to be 85.9%. For the same substance, in series [1] (setting [5]), the “% Peptide Complexed to ^99mTc 10 h” value stood at 84.1% and the “% Peptide Complexed to ^99mTc 12 h” value turned out to be 82.7%. In series [1] (setting [6]), the “% Peptide Complexed to ^99mTc Initial” value was 100%.

For “Ma-Gly-Gly-Tyr-Ala.amide (Mercaptoacetyl-GGYA-NH2; SMILES C[C@H](NC(=O)[C@H](Cc1ccc(O)cc1)NC(=O)CNC(=O)CNC(=O)CS)C(N)=O) [Ma.GG, control chelator, no stabilizing sidechain]”, in series [1] (setting [5]), the “% Peptide Complexed to ^99mTc 2 h” value is 91.3%, the “% Peptide Complexed to ^99mTc 4 h” value worked out at 75.7%, the “% Peptide Complexed to ^99mTc 6 h” value is 61.2% and the “% Peptide Complexed to ^99mTc 8 h” value was found to be 48.7%. Besides, in series [1] (setting [5]), the “% Peptide Complexed to ^99mTc 10 h” value came out at 42.2% and the “% Peptide Complexed to ^99mTc 12 h” value is on record as 32.7%. Also, the “% Peptide Complexed to ^99mTc Initial” value in series [1] (setting [6]) is on record as 100%.

“cyclo-[(N-Me)Phe-Tyr-(D)Trp-Lys-Val-Hcy]-CH2CO.(β)Dap-(D)Orn-Cys-Lys-NH2 [-(β)Dap-(D)Orn-Cys-Lys-NH2]”: in series [3] (^99mTc labeled NeoTect analogs), the “HPLC RCP 0.5 hours” value turned out to be 96.8%, the “HPLC RCP 3 hours” value came to 94.1%, the “HPLC RCP 6 hours” value came out at 91.3% and the “HPLC RCP 9 hours” value is recorded as 89.8%. For the same substance, the “HPLC RCP 18 hrs.” value in series [3] (^99mTc labeled NeoTect analogs) turned out to be 81.9%.

As to “cyclo-[(N-Me)Phe-Tyr-(D)Trp-Lys-Val-Hcy]-CH2CO.(β)Dap-Gly-Cys-Lys-NH2 [-(β)Dap-Gly-Cys-Lys-NH2]”, in series [3] (^99mTc labeled NeoTect analogs), the “HPLC RCP 0.5 hours” value came out at 92.3%, the “HPLC RCP 3 hours” value is listed as 84.9%, the “HPLC RCP 6 hours” value came out at 85.6% and the “HPLC RCP 9 hours” value is 81.3%. Also, the “HPLC RCP 18 hrs.” value in series [3] (^99mTc labeled NeoTect analogs) worked out at 76.0%.

Turning to “cyclo-[(N-Me)Phe-Tyr-(D)Trp-Lys-Val-Hcy]-CH2CO.(β)Dap-Lys-Cys-Lys-NH2 [-(β)Dap-Lys-Cys-Lys-NH2, reference compound]”, in series [3] (^99mTc labeled NeoTect analogs), the “HPLC RCP 0.5 hours” value came to 93.9%, the “HPLC RCP 3 hours” value was found to be 91.0%, the “HPLC RCP 6 hours” value is listed as 85.2% and the “HPLC RCP 9 hours” value turned out to be 81.8%. The “HPLC RCP 18 hrs.” value in series [3] (^99mTc labeled NeoTect analogs) is recorded as 75.7%.

Regarding “cyclo-[Tyr-(D)Trp-Lys-Thr-Phe-(N-Me)Hcy]-CH2CO.(β)Dap-(α)Dap-Cys-Thr-Ser [—CH2NH2]”, the “HPLC RCP 0.5 hours” value in series [3] (setting [7]) turned out to be 88.5%. Also, in series [3] (setting [8]), the “HPLC RCP 3 hours” value amounted to 86.6%, the “HPLC RCP 6 hours” value turned out to be 84.1% and the “HPLC RCP 9 hours” value is listed as 82.6%.

Turning to “cyclo-[Tyr-(D)Trp-Lys-Thr-Phe-(N-Me)Hcy]-CH2CO.(β)Dap-Dab-Cys-Thr-Ser [—CH2CH2NH2]”, in series [3] (setting [7]), the “HPLC RCP 0.5 hours” value worked out at 94.3%. In series [3] (setting [8]), the “HPLC RCP 3 hours” value is recorded as 91.6%, the “HPLC RCP 6 hours” value is 90.7% and the “HPLC RCP 9 hours” value turned out to be 89.2%.

For “cyclo-[Tyr-(D)Trp-Lys-Thr-Phe-(N-Me)Hcy]-CH2CO.(β)Dap-Gly-Cys-Thr-Ser [—H]”, the “HPLC RCP 0.5 hours” value in series [3] (setting [7]) is on record as 89.7%. In series [3] (setting [8]), the “HPLC RCP 3 hours” value came out at 84.8%, the “HPLC RCP 6 hours” value worked out at 83.7% and the “HPLC RCP 9 hours” value turned out to be 80.2%.

As for “cyclo-[Tyr-(D)Trp-Lys-Thr-Phe-(N-Me)Hcy]-CH2CO.(β)Dap-Lys-Cys-Thr-Ser [—CH2CH2CH2CH2NH2]”, the “HPLC RCP 0.5 hours” value in series [3] (setting [7]) was found to be 83.4%. Moreover, in series [3] (setting [8]), the “HPLC RCP 3 hours” value came out at 83.4%, the “HPLC RCP 6 hours” value was 81.3% and the “HPLC RCP 9 hours” value worked out at 81.0%.

For “cyclo-[Tyr-(D)Trp-Lys-Thr-Phe-(N-Me)Hcy]-CH2CO.(β)Dap-Met-Cys-Thr-Ser [—CH2CH2SCH3]”, the “HPLC RCP 0.5 hours” value in series [3] (setting [7]) is on record as 95.0%. Besides, in series [3] (setting [8]), the “HPLC RCP 3 hours” value was found to be 93.7%, the “HPLC RCP 6 hours” value came to 92.5% and the “HPLC RCP 9 hours” value worked out at 92.3%.

For the substance “cyclo-[Tyr-(D)Trp-Lys-Thr-Phe-(N-Me)Hcy]-CH2CO.(β)Dap-Orn-Cys-Thr-Ser [—CH2CH2CH2NH2]”, the “HPLC RCP 0.5 hours” value in series [3] (setting [7]) is listed as 97.0%. Moreover, in series [3] (setting [8]), the “HPLC RCP 3 hours” value worked out at 95.2%, the “HPLC RCP 6 hours” value came to 94.9% and the “HPLC RCP 9 hours” value is listed as 94.9%.
